Measured values: PMC8006131, “Pulse Dipolar EPR Reveals Double-Histidine Motif Cu^II−NTA Spin-Labeling Robustness against Competitor Ions” (The journal of physical chemistry letters, 2021)
Several values for one entry are separate records, joined by “and”; a condition that tells them apart may be missing. Identical values can stand only once. Like-named read-outs stand apart in the source and are kept apart here.

Experiments:
K28H/Q32H GB1 = biological target: T1, K28H/Q32H GB1 (Streptococcus sp. group G, UniProt P06654, K254H/Q258H); assay: Isothermal titration calorimetry (ITC) at 298 K, single-site binding model
T1 construct: made in house
Description: seconds between injections, at 298 K. All solutions were degassed before the use and the final samples were centrifuged immediately before measurements. For the ZnII-NTA measurements, K28H/Q32H GB1 concentration was 800 μΜ, and titrant concentration was 12 mM. For the variable pH measurements, K28H/Q32H GB1 concentration was 75 μM and titrant concentration was 2.5 mM. Blank conditions of either buffer A (42.4 mM Na2HPO4, 7.6 mM KH2PO4, 150 mM NaCl, pH 7.4) titrated against addition of 12 mM titrant, or pH adjusted buffer A titrated against addition of 1.0 or 2.0 mM titrant, were recorded for the competitor and variable pH ITC measurements, respectively.
Subtraction of the blank measurements from the raw data mitigated the heat of dilution. All data analyses were performed in MicroCal Origin 7 (OriginLab, Northampton, MA) and thermodynamic parameters were derived using standard Marquardt fitting of a single-site binding model, as in our previous work.1 The fitted equation is given as:
Where: 3($) is the heat content of the solution at the point of the <th injection, is the binding constant, 4 is the stoichiometry of binding, =7 is the molar heat of ligand binding, 8 is the active cell volume, 56 is the total concentration of macromolecule contained in 8 , :6 is the total concentration of ligand contained in 8 .
1.8 UV-visible Spectroscopy:
All UV-visible absorbance spectra were recorded using a Jenway 67 series UV-vis spectrophotometer, in plastic cuvettes with a path length of 10 mm, in single-beam mode. All spectra are recorded at ambient temperature, and with a wavelength resolution of 1 nm, in the wavelength range 320-800 nm. Each sample was blanked before measurement, and all were repeated in triplicate. Data was processed using the Jenway 67-series software suite, and were exported to ASCII format for plotting and analysis in Matlab. For quantitation of CuII-IDA and CuII-NTA concentration, molar extinction coefficients of 62 M-1 cm-1 and 59 M-1cm-1 at 726 nm, and 800 nm were used, respectively, taken from previous literature.1,11

I6R1/K28H/Q32H GB1 [1] = biological target: T2, I6R1/K28H/Q32H GB1 (Streptococcus sp. group G, UniProt P06654, I232C/K254H/Q258H); assay: Cu^II-nitroxide RIDME pseudotitration (pulse dipolar EPR); format: binding; settings: for Kd: read-out: fitted dissociation constant (bivariate fit)
T2 construct: MTSL nitroxide spin label on Cys6 (R1 side chain); made in house
Source text: (§1) I Experimental Procedures:
(§2) 1.1 Construct Design, Expression and Purification:
(§3) Constructs of Streptococcus sp. group G, protein G B1 domain (GB1) were designed, expressed and purified as previously described.1,2 For completeness the protein sequences for the K28H/Q32H and I6C/K28H/Q32H GB1 constructs are given below in figures S1 and S2, respectively. The positions of the cysteine and double-histidine motif are indicated in cyan and green, respectively.
(§4) K28H/Q32H GB1 Protein Sequence:
(§5) Figure S1. Full amino-acid sequence for the K28H/Q32H GB1 construct used in this work, with each histidine residue of the double-histidine motif shown in green; and residue number indicated above the sequence.
(§6) I6C/K28H/Q32H GB1 Protein Sequence:
Figure S2. Full amino-acid sequence for the I6C/K28H/Q32H GB1 construct used in this work, with the cysteine residue shown in cyan and each histidine residue of the double-histidine motif shown in green; and residue numbers indicated […]
1.2 Pulse EPR Sample Preparation:
All material was exchanged into pH-adjusted deuterated buffer A (42.4 mM Na2HPO4, 7.6 mM KH2PO4, 150 mM NaCl) by first freeze-drying and then re-dissolving in D2O. For Q-band RIDME samples of 6R1/28H/32H GB1, a total volume of 70 μL was used, with protein concentrations of 1, 2, or 5 μM as stated. All EPR samples were frozen by direct immersion into liquid nitrogen. ZnII-NTA and CuII-NTA stock solutions were prepared as previously described1,3; and for labelling, ZnII-NTA and CuII-NTA stock solutions with nominal concentrations of 100 and 10 mM were used, […]
1.3 Metal Chelate Spin Label Preparation:
For preparation of all metal-NTA labels: CuII-NTA, and ZnII-NTA, , ZnCl2, CuCl2 and NTA were weighed in a glove-box and aliquoted into 1.5 mL reaction tubes. Stock solutions of 100 mM were prepared as previously described.3 Complete dissolution was ensured by vortexing until solutions were clear […]
of precipitate. […]
1.5 Pulse EPR Measurements:
All pulse EPR experiments were performed using a Bruker ELEXSYS 580 pulse EPR spectrometer.
Temperatures were maintained using a cryogen-free variable temperature cryostat (Cryogenic Ltd) operating in the 1.8-300 K temperature range. All measurements of the electron spin longitudinal relaxation times (T1) of CuII-NTA, and all 5-pulse dead-time free RIDME measurements4 were performed at 30 K, using a high-power 150 W travelling-wave tube (TWT; Applied Systems […]
an SRT of 2 ms, with 2560 points, 25 shots-per-point, and 1-5 scans, as stated. A τ of 800 ns was used, with an approximate time-window length of […], incremented in steps of 200 ns.
1.6 Competitive Binding Model:
Let us begin by considering a binding equilibrium in presence of a competitor ligand (A), with the following two approximations: i) the binding of the ligand (L) and (A) to a protein (P) is mutually exclusive, and ii) the competitor (A) binds to (P) weakly with respect to (L). Here we can define a dissociation constant for both the ligand (KDL) and for the competitor (KDA), given in (S1) and (S2) […]
Rearranging (S1) and (S2) for equilibrium concentrations of protein and protein-competitor complex, given as [P] and [PA] respectively, yields (S3) and (S4):
Here, an expression for total protein, [P]0, can be defined:
Substitution of (S3) and (S4) into (S5) yields (S6):
Symbolic substitution and rearrangement of (S6) to solve for [PL] yields (S7): […]

I6R1/K28H/Q32H GB1 [2] = biological target: T2, I6R1/K28H/Q32H GB1; assay: Zn^II–NTA competitor RIDME pseudotitration (competition assay in presence of Cu^II–NTA); format: binding; settings: low μM protein concentration
Description: The corresponding RIDME pseudotitration was performed at 1 μM protein concentration in the presence of 10 μM Cu^II– NTA (to ensure quantitative loading at the double histidine motif prior to addition of competitor ligand (see SI section 1.6)) and varying Zn^II–NTA concentrations. […] Additionally, this benchmarks quantitation of Cu^II-nitroxide RIDME modulation depths for remotely determining binding affinities of EPR silent ligands, in a competition assay format.
as §1, §2, §3, §4, §5, §6
Figure S2. […]

6R1/28H/32H GB1 = biological target: 6R1/28H/32H GB1; set-up: method as in earlier work; settings: pH 7.4; 75 μM protein, 2 mM CuII-NTA; cited from earlier work
I6R1/K28H/Q32H GB1 [3] = biological target: T2, I6R1/K28H/Q32H GB1; settings: pH 7.4; previous work; read-out: fitted dissociation constant; cited from earlier work
[4] = pH 6.4, 298 K, listed as CuII-NTA

For `O=C([O-])CN(CC(=O)[O-])CC(=O)[O-].[Cu+2]` [Cu^II–NTA, Cu^II-nitrilotriacetic acid], the “binding at the double-histidine motif” value (K28H/Q32H GB1; pH 5.0, 298 K, 75 μM protein, 2 mM Cu^II–NTA) was “negligible binding”, the Wiseman factor (K28H/Q32H GB1; pH 6.4) was 0.76 and the “n (stoichiometry of binding)” value (K28H/Q32H GB1; pH 6.4, 298 K) was ~ 1. The ΔH (K28H/Q32H GB1; pH 6.4, 298 K) was -6.9 kcal/mol, the “n (stoichiometry of binding)” value (K28H/Q32H GB1; [4]) was 0.97 and the ΔH (K28H/Q32H GB1; [4]) was -6.94 kcal/mol. It also gave a Kd (K28H/Q32H GB1; pH 6.4, 298 K, read-out: KD) of 98.6 µM, a Kd (K28H/Q32H GB1; pH 6.4, ΔH extrapolated to 235 K, listed as CuII-NTA, read-out: Predicted KD at 235 K) of 4.26 µM and a Kd (K28H/Q32H GB1; pH 6.4, ΔH extrapolated to 235 K, read-out: Predicted KD at 235 K) of roughly 4 µM. The Wiseman factor (K28H/Q32H GB1; pH 8.4) was 9.42, the “n (stoichiometry of binding)” value (K28H/Q32H GB1; pH 8.4, 298 K) was ~ 2 and the ΔH (K28H/Q32H GB1; pH 8.4, 298 K) was -15.2 kcal/mol. The “n (stoichiometry of binding)” value (K28H/Q32H GB1; pH 8.4, 298 K, listed as CuII-NTA) was 2.04, the Kd (K28H/Q32H GB1; pH 8.4, 298 K, listed as CuII-NTA, read-out: KD) was 7.96 µM and the Kd (K28H/Q32H GB1; pH 8.4, 298 K, read-out: KD) was 8 µM. The “predicted increase in affinity compared to previous work” value (K28H/Q32H GB1; pH 8.4, predicted from room-temperature ITC) was 20 fold, the Wiseman factor (K28H/Q32H GB1; pH 9.0) was 3.00 and the ΔH (K28H/Q32H GB1; pH 9.0, 298 K) was -2.92 kcal/mol. For the same molecule, the “n (stoichiometry of binding)” value (K28H/Q32H GB1; pH 9.0, 298 K, 1 mM CuII-NTA) was 0.94, the Kd (K28H/Q32H GB1; pH 9.0, 298 K, read-out: KD) was 25 µM and the Kd (K28H/Q32H GB1; pH 9.0, read-out: Predicted KD at 235 K) was 6.67 µM. The “affinity reduction compared to pH 7.4” value (I6R1/K28H/Q32H GB1 [1]; pH 6.4) was 2 fold, the “available double-histidine motifs saturated” value (I6R1/K28H/Q32H GB1 [1]; pH 6.4, 5 μM protein, 1 equiv of Cu^II–NTA) was roughly 70% and the Kd (I6R1/K28H/Q32H GB1 [1]; pH 6.4, 5 μM protein) was 0.31 µM and 0.308 µM. For the same molecule, the “binding affinity higher than at pH 7.4” value (I6R1/K28H/Q32H GB1 [1]; pH 8.4) was “approximately 2 fold”, the Kd (I6R1/K28H/Q32H GB1 [1]; pH 8.4, 2 μM protein) was 0.091 µM and the “robust against Zn^II–NTA competitor ligand in molar excess” value (I6R1/K28H/Q32H GB1 [2]) was greater than 1000 fold. For the same molecule, the Kd (6R1/28H/32H GB1) was 5 µM and the Kd (I6R1/K28H/Q32H GB1 [3]) was 0.14 µM.
